Assay results taken from patent US20230145794A1, “SOLVENT COMPOSITIONS PROMOTING PLANT GROWTH” (WinField Solutions, LLC, priority 2021, published 2023).
Read-outs that look alike come from different tables or passages of the source.

Columns and labels:
[1] = known solvent, from Safety Data Sheet; cited from earlier work
[2] = Physical properties of solvent/PGR compositions (flash point tester, pH, density); assay type: physicochemical; settings: flashpoint tester
Experimental: The physical properties of the various solvents and solvent combinations in combination with the assortment of PGR compositions were determined using standard laboratory equipment. Flash point was determined using a flashpoint tester.
The solvents initially examined included 2-butoxy ethanol (“BE”), BHT, propylene glycol (“PG”), methoxy propanol, water, polyethelene glycol (“PEG”), and Tetrahydrofurfyl alcohol (“THFA”), alone and/or in various combinations, with and without PGR compositions including Kinetin, indole butyric acid (“IBA”) and gibberellin A4 (“GA4”).

| Structure (SMILES) | Density [1] [g/mL] | Flash Point [2] [C°] | Flash Point [1] [C. °] | Boiling Point [1] [C. °] |
| --- | --- | --- | --- | --- |
| CCOC(C)=O [compound 1, Ethyl acetate] | 1.049 |  |  |  |
| OCC1CCCO1 (stereo not shown) [Comp 41, THFA] |  | 183 |  |  |
| CCCCOCCO [compound 3, Ethylene glycol butyl ether, 2-butoxyl ethanol] |  |  | 60 |  |
| OCC1CCCO1 (stereo not shown) [compound 6, Tetrahydrofurfyl Alcohol] |  |  | 84 |  |
| COCC(C)O (stereo not shown) [Comp 40, methoxy propanol] |  | 89 |  |  |
| CC(O)CO (stereo not shown) [compound 9, Propylene Glycol] | 1.036 |  | 101 |  |
| CCCCC(CC)COC(=O)C(C)O (stereo not shown) [compound 5, Lactic acid, 2-ethylhexyl ester] | 1.209 |  | 110 |  |
| CCCCOCCOCCO [compound 4, Diethylene glycol butyl ether] | 0.967 |  | 78 |  |
| CC(=O)OCC(COC(C)=O)OC(C)=O [compound 12, Glyceryl triacetate] |  |  | 138 |  |
| CCCCCOC(C)=O [compound 14, Amyl Acetate] | 0.876 |  | 32 |  |
| COCC(C)O (stereo not shown) [compound 2, 1-methoxy-2-propanol] | 0.942 |  |  |  |
| CCCCC(CC)CO (stereo not shown) [compound 7, Ethyl hexanol] | 0.833 |  | 73 | 185 |
| CC(=O)OCCCCCCCC=O [compound 11, Oxo-octyl acetate] | 0.867 |  | 86 | 211 |
| CCCCOC(=O)C(C)O (stereo not shown) [compound 8, Butyl lactate] |  |  | 76 |  |
